Experimental data from patent publication US9511073B2, “Aromatic amides and uses thereof” (TAXIS Pharmaceuticals, Inc., priority 2011, dated 2016).
≈ marks a conversion by molar mass, not a printed value.

Test system: Staphylococcus aureus (Isolate ID ATCC 29213)
Experiment: Bacterial assay: MIC by broth microdilution or agar dilution (CLSI), S. aureus ATCC 29213
Assay type: cell-based
Conditions: for MIC: Staphylococcus aureus, ATCC29213, read-out: S. aureus MIC (μg/mL) Activity Range, S. aureus (ATCC29213); for S. aureus MIC (μg/mL) Activity Range: S. aureus (ATCC29213)
Procedure, shortened: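 MICs by CLSI broth microdilution or agar dilution against S. aureus ATCC 29213 and its FtsZ-G196A mutant. Values reported as ranges: A ≤0.25 μg/mL, B >0.25–1.0, C >1.0–16, D >16 μg/mL.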

SMILES | MIC [µg/mL] | S. aureus MIC (μg/mL) Activity Range
NC(=O)c1c(F)ccc(O[C@H](CO)c2nc(-c3ccc(OC(F)F)cc3)co2)c1F [Compound 274B, (R)-3-(1-(4-(4-(difluoromethoxy)phenyl)oxazol-2-yl)-2-hydroxyethoxy)-2,6-difluorobenzamide] | 1 to 16 (≈ 2.35 to 37.5 µM) | –
CC(Oc1ccc(F)c(C(N)=O)c1F)c1nc(-c2ccc(C(F)(F)F)cn2)c(Cl)o1 (stereo not shown) [Compound 43] | 1 to 16 (≈ 2.23 to 35.7 µM) | –
CN(C)C(=O)CCC(Oc1ccc(F)c(C(N)=O)c1F)c1nc(-c2ccc(C(F)(F)F)cc2)c(Br)o1 (stereo not shown) [Compound 94, 3-(1-(5-bromo-4-(4-(trifluoromethyl)phenyl)oxazol-2-yl)-4-(dimethylamino)-4-oxobutoxy)-2,6-difluorobenzamide] | < 0.25 | –
Cn1cnc(CNC(=O)OCC(Oc2ccc(F)c(C(N)=O)c2F)c2nc(-c3ccc(C(F)(F)F)cc3)c(Br)o2)c1 (stereo not shown) [Compound 203, 2-(5-bromo-4-(4-(trifluoromethyl)phenyl)oxazol-2-yl)-2-(3-carbamoyl-2,4-difluorophenoxy)ethyl ((1-methyl-1H-imidazol-4-yl)methyl)carbamate] | 0.25 to 1 (≈ 0.388 to 1.55 µM) | –
CCOC(=O)C(CC(Oc1ccc(F)c(C(N)=O)c1F)c1nc(-c2ccc(C(F)(F)F)cc2)c(Br)o1)C(=O)OCC (stereo not shown) [Compound 119, diethyl 2-(2-(5-bromo-4-(4-(trifluoromethyl)phenyl)oxazol-2-yl)-2-(3-carbamoyl-2,4-difluorophenoxy)ethyl)malonate] | > 16 | –
NC(=O)c1c(F)ccc(OC(COC(=O)NCCc2c[nH]cn2)c2nc(-c3ccc(C(F)(F)F)cc3)c(Br)o2)c1F (stereo not shown) [Compound 162, 2-(5-bromo-4-(4-(trifluoromethyl)phenyl)oxazol-2-yl)-2-(3-carbamoyl-2,4-difluorophenoxy)ethyl (2-(1H-imidazol-4-yl)ethyl)carbamate] | 1 to 16 (≈ 1.55 to 24.8 µM) | –
CC(=O)NCC(Oc1ccc(F)c(C(N)=O)c1F)c1nc(-c2ccc(C(F)(F)F)cc2)co1 (stereo not shown) [Compound 282, 3-(2-acetamido-1-(4-(4-(trifluoromethyl)phenyl)oxazol-2-yl)ethoxy)-2,6-difluorobenzamide] | > 16 | –
CCCC(Oc1ccc(F)c(C(N)=O)c1F)c1nc(-c2ccc(Cl)cc2)c(Br)o1 (stereo not shown) [Compound 23] | 1 to 16 (≈ 2.06 to 32.9 µM) | –
Cc1noc(CCNC(=O)OCC(Oc2ccc(F)c(C(N)=O)c2F)c2nc(-c3ccc(C(F)(F)F)cc3)c(Br)o2)n1 (stereo not shown) [Compound 171, 2-(5-bromo-4-(4-(trifluoromethyl)phenyl)oxazol-2-yl)-2-(3-carbamoyl-2,4-difluorophenoxy)ethyl (2-(3-methyl-1,2,4-oxadiazol-5-yl)ethyl)carbamate] | 0.25 to 1 (≈ 0.379 to 1.51 µM) | –
NC(=O)c1c(F)ccc(OC(Cn2ccnc2)c2nc(-c3ccc(C(F)(F)F)cc3)c(Br)o2)c1F (stereo not shown) [Compound 114, 3-(1-(5-bromo-4-(4-(trifluoromethyl)phenyl)oxazol-2-yl)-2-(1H-imidazol-1-yl)ethoxy)-2,6-difluorobenzamide] | 1 to 16 (≈ 1.79 to 28.7 µM) | –
NC(=O)c1c(F)ccc(O[C@H](CO)c2nc(-c3ccc(Cl)s3)c(Br)o2)c1F [Compound 250B, (R)-3-(1-(5-bromo-4-(5-chlorothiophen-2-yl)oxazol-2-yl)-2-hydroxyethoxy)-2,6-difluorobenzamide] | < 0.25 | –
NC(=O)c1c(F)ccc(OC(CO)c2nc(-c3cccs3)c(Br)o2)c1F (stereo not shown) [Compound 243, 3-(1-(5-bromo-4-(thiophen-2-yl)oxazol-2-yl)-2-hydroxyethoxy)-2,6-difluorobenzamide] | 1 to 16 (≈ 2.25 to 35.9 µM) | –
Cc1cc(CNC(=O)OCC(Oc2ccc(F)c(C(N)=O)c2F)c2nc(-c3ccc(C(F)(F)F)cc3)c(Br)o2)nn1C (stereo not shown) [Compound 213, 2-(5-bromo-4-(4-(trifluoromethyl)phenyl)oxazol-2-yl)-2-(3-carbamoyl-2,4-difluorophenoxy)ethyl ((1,5-dimethyl-1H-pyrazol-3-yl)methyl)carbamate] | 0.25 to 1 (≈ 0.38 to 1.52 µM) | –
NC(=O)c1c(F)ccc(OC(CC(O)CO)c2nc(-c3ccc(C(F)(F)F)cc3)c(Br)o2)c1F (stereo not shown) [Compound 156, 3-(1-(5-bromo-4-(4-(trifluoromethyl)phenyl)oxazol-2-yl)-3,4-dihydroxybutoxy)-2,6-difluorobenzamide] | – | C (activity>1.0 μg/mL-16 μg/mL)
Cc1nnc(CNC(=O)OCC(Oc2ccc(F)c(C(N)=O)c2F)c2nc(-c3ccc(C(F)(F)F)cc3)c(Br)o2)o1 (stereo not shown) [Compound 172, 2-(5-bromo-4-(4-(trifluoromethyl)phenyl)oxazol-2-yl)-2-(3-carbamoyl-2,4-difluorophenoxy)ethyl ((5-methyl-1,3,4-oxadiazol-2-yl)methyl)carbamate] | 0.25 to 1 (≈ 0.387 to 1.55 µM) | –
CS(=O)(=O)OCC(Oc1ccc(F)c(C(N)=O)c1F)c1nc(-c2ccc(C(F)(F)F)cc2)c(Cl)o1 (stereo not shown) [Compound 45, 2-(3-carbamoyl-2,4-difluorophenoxy)-2-(5-chloro-4-(4-(trifluoromethyl)phenyl)oxazol-2-yl)ethyl methanesulfonate] | 1 to 16 | –
Cc1noc(-c2ccc(-c3nc(C(CO)Oc4ccc(F)c(C(N)=O)c4F)oc3Br)cc2)n1 (stereo not shown) [Compound 85, 3-(1-(5-bromo-4-(4-(3-methyl-1,2,4-oxadiazol-5-yl)phenyl)oxazol-2-yl)-2-hydroxyethoxy)-2,6-difluorobenzamide] | 1 to 16 (≈ 1.92 to 30.7 µM) | –

SMILES | MIC [µg/mL] | S. aureus MIC (μg/mL) Activity Range
Cc1cnccc1CNC(=O)OCC(Oc1ccc(F)c(C(N)=O)c1F)c1nc(-c2ccc(C(F)(F)F)cc2)c(Br)o1 (stereo not shown) [Compound 216, 2-(5-bromo-4-(4-(trifluoromethyl)phenyl)oxazol-2-yl)-2-(3-carbamoyl-2,4-difluorophenoxy)ethyl ((3-methylpyridin-4-yl)methyl)carbamate] | 0.25 to 1 (≈ 0.381 to 1.53 µM) | –
C=CCOC(=O)CCC(=O)OCC(Oc1ccc(F)c(C(N)=O)c1F)c1nc(-c2ccc(C(F)(F)F)cc2)c(Br)o1 (stereo not shown) [Compound 70, allyl (2-(5-bromo-4-(4-(trifluoromethyl)phenyl)oxazol-2-yl)-2-(3-carbamoyl-2,4-difluorophenoxy)ethyl) succinate] | 0.25 to 1 | –
NC(=O)c1c(F)ccc(OC(C(=O)O)c2nc(-c3ccc(Cl)cc3)c(Cl)o2)c1F (stereo not shown) [Compound 53, 2-(3-carbamoyl-2,4-difluorophenoxy)-2-(5-chloro-4-(4-chlorophenyl)oxazol-2-yl)acetic acid] | > 16 | –
CNc1ccc(-c2nc(C(CO)Oc3ccc(F)c(C(N)=O)c3F)oc2Br)cn1 (stereo not shown) [Compound 224, 3-(1-(5-bromo-4-(6-(methylamino)pyridin-3-yl)oxazol-2-yl)-2-hydroxyethoxy)-2,6-difluorobenzamide] | > 16 | –
CC(=O)OCC(Oc1ccc(F)c(C(N)=O)c1F)c1nc(-c2ccc(C#N)cc2)c(Br)o1 (stereo not shown) [Compound 76, 2-(5-bromo-4-(4-cyanophenyl)oxazol-2-yl)-2-(3-carbamoyl-2,4-difluorophenoxy)ethyl acetate] | 1 to 16 | –
Cc1cccc(CNC(=O)OCC(Oc2ccc(F)c(C(N)=O)c2F)c2nc(-c3ccc(C(F)(F)F)cc3)c(Br)o2)n1 (stereo not shown) [Compound 199, 2-(5-bromo-4-(4-(trifluoromethyl)phenyl)oxazol-2-yl)-2-(3-carbamoyl-2,4-difluorophenoxy)ethyl ((6-methylpyridin-2-yl)methyl)carbamate] | 0.25 to 1 (≈ 0.381 to 1.53 µM) | –
NC(=O)c1c(F)ccc(OC(CO)c2nc(-c3ccc(C(F)(F)F)cc3)sc2Br)c1F (stereo not shown) [Compound 131, 3-(1-(5-bromo-2-(4-(trifluoromethyl)phenyl)thiazol-4-yl)-2-hydroxyethoxy)-2,6-difluorobenzamide] | > 16 | –
CNCC(=O)OCC(Oc1ccc(F)c(C(N)=O)c1F)c1nc(-c2ccc(C(F)(F)F)cc2)c(Br)o1 (stereo not shown) [Compound 62, 2-(5-bromo-4-(4-(trifluoromethyl)phenyl)oxazol-2-yl)-2-(3-carbamoyl-2,4-difluorophenoxy)ethyl 2-(methylamino)acetate] | 0.25 to 1 (≈ 0.432 to 1.73 µM) | –
C=CCOP(=O)(OCC=C)OCC(Oc1ccc(F)c(C(N)=O)c1F)c1nc(-c2ccc(C(F)(F)F)cc2)c(Br)o1 (stereo not shown) [Compound 71, diallyl (2-(5-bromo-4-(4-(trifluoromethyl)phenyl)oxazol-2-yl)-2-(3-carbamoyl-2,4-difluorophenoxy)ethyl) phosphate] | 0.25 to 1 | –
Cc1ccc(-c2csc(C(CO)Oc3ccc(F)c(C(N)=O)c3F)n2)cn1 (stereo not shown) [Compound 264, 2,6-difluoro-3-(2-hydroxy-1-(4-(6-methylpyridin-3-yl)thiazol-2-yl)ethoxy)benzamide] | > 16 | –
NC(=O)c1c(F)ccc(OC(CC(O)CO)c2nc(-c3ccc(C(F)(F)F)cc3)c(Br)o2)c1F (stereo not shown) [Compound 148, 3-(1-(5-bromo-4-(4-(trifluoromethyl)phenyl)oxazol-2-yl)-3,4-dihydroxybutoxy)-2,6-difluorobenzamide] | – | C (activity>1.0 μg/mL-16 μg/mL)
CC(C)(C)OC(=O)NCCNC(=O)OCC(Oc1ccc(F)c(C(N)=O)c1F)c1nc(-c2ccc(C(F)(F)F)cc2)c(Br)o1 (stereo not shown) [Compound 151, 2-(5-bromo-4-(4-(trifluoromethyl)phenyl)oxazol-2-yl)-2-(3-carbamoyl-2,4-difluorophenoxy)ethyl tert-butyl ethane-1,2-diyldicarbamate] | < 0.25 | –
CCc1nc([C@@H](CO)Oc2ccc(F)c(C(N)=O)c2F)oc1Br [Compound 275B, (R)-3-(1-(5-bromo-4-ethyloxazol-2-yl)-2-hydroxyethoxy)-2,6-difluorobenzamide] | > 16 | –
C=CCc1oc(C(C)Oc2ccc(F)c(C(N)=O)c2F)nc1-c1ccc(OC)cc1 (stereo not shown) [Compound 9] | 0.25 to 1 (≈ 0.603 to 2.41 µM) | –
NC(=O)c1c(F)ccc(OC(CO)c2nc(-c3ccc(Cl)c(F)c3)co2)c1F (stereo not shown) [Compound 222, 3-(1-(4-(4-chloro-3-fluorophenyl)oxazol-2-yl)-2-hydroxyethoxy)-2,6-difluorobenzamide] | > 16 | –
NC(=O)c1c(F)ccc(OC(COC(=O)Nc2cccnc2)c2nc(-c3ccc(C(F)(F)F)cc3)c(Br)o2)c1F (stereo not shown) [Compound 170, 2-(5-bromo-4-(4-(trifluoromethyl)phenyl)oxazol-2-yl)-2-(3-carbamoyl-2,4-difluorophenoxy)ethyl pyridin-3-ylcarbamate] | 0.25 to 1 (≈ 0.399 to 1.59 µM) | –
NC(=O)c1c(F)ccc(OC(CO)c2nc(-c3ccc(Cl)nc3)c(Br)o2)c1F (stereo not shown) [Compound 241, 3-(1-(5-bromo-4-(6-chloropyridin-3-yl)oxazol-2-yl)-2-hydroxyethoxy)-2,6-difluorobenzamide] | 1 to 16 (≈ 2.11 to 33.7 µM) | –
